PMC9241302, “Identification of 2-(4-N,N-Dimethylaminophenyl)-5-methyl-1-phenethyl-1H-benzimidazole targeting HIV-1 CA capsid protein and inhibiting HIV-1 replication in cellulo” (BMC Pharmacology & Toxicology, 2022)

What was measured:
[1] = Cytotoxicity in murine macrophages (MTT); format: cell-based; conditions: mouse, J774.1 murine macrophages; 48 hs
Procedure: TZM-bl cells, U87-CD4-CCR5, murine macrophages (J774.1), and THP-1 monocytes (ATCC®TIB-202™) were grown following ATCC recommendations. Cells were seeded in a 96-well plate (10^4 cells in 200 µL culture medium) and incubated at 37 °C in a 5% CO2 atmosphere for 48 h, to allow cell adhesion before drug testing. For stimulation (THP-1 monocytes), cells were incubated with 100 nM of phorbol 12-myristate 13-acetate (PMA) for 48 h. […] A vehicle for control (0.4% DMSO) and negative wells (cells in medium) was used in each test. […] After removing the medium, formazan crystals were dissolved in 180 µL of DMSO and 20µL of MTT buffer (0.1 M glycine, 0.1 M NaCl, 0.5 mM EDTA, pH 10.5), and the absorbance at 560 nm was measured. […] Tests were performed in triplicate, in two independent experiments.

[2] = Cytotoxicity in mammalian cells (MTT, all cell types); format: cell-based; conditions: tested at 25, 50, and 100 µM
Procedure: The cytotoxicity of the compounds was assayed in different types of cells (TZM-bl cells, U87-CD4-CCR5, murine macrophages (J774.1), and THP-1 monocytes) at 25, 50, and 100 µM (Fig. 2). […] Compound 314 has the most complete toxicology profile because was preclinically developed for Chagas disease infection, as an antiparasitic drug. […] It has lower oral toxicity than PF74. Was predicted as no mutagenic by the TEST software.
TZM-bl cells, U87-CD4-CCR5, murine macrophages (J774.1), and THP-1 monocytes (ATCC®TIB-202™) were grown following ATCC recommendations. Cells were seeded in a 96-well plate (10^4 cells in 200 µL culture medium) and incubated at 37 °C in a 5% CO2 atmosphere for 48 h, to allow cell adhesion before drug testing. For stimulation (THP-1 monocytes), cells were incubated with 100 nM of phorbol 12-myristate 13-acetate (PMA) for 48 h. PMA was then washed and cells were left for an additional 24 h, 48 h or11 days (only U87 cells) with growth media containing compound 696 at 10, 25, 50, and 100 µM. […] Cell viability was then assessed by measuring the mitochondria-dependent reduction of MTT (3-(4,5-dimethylthiazol-2-yl)-2,5-diphenyltetrazolium bromide) to formazan. […] After removing the medium, formazan crystals were dissolved in 180 µL of DMSO and 20µL of MTT buffer (0.1 M glycine, 0.1 M NaCl, 0.5 mM EDTA, pH 10.5), and the absorbance at 560 nm was measured. […]

monomeric HIV-1 CA = biological target: T1, monomeric HIV-1 CA (Human immunodeficiency virus type 1 group M subtype B, UniProt P12493); test: Affinity for HIV-1 CA by microscale thermophoresis (MST); format: binding
T1 construct: the capsid protein (CA) of the Gag polyprotein; made in house
Procedure: The affinity of compound 696 for HIV-1 CA in vitro was measured by microscale thermophoresis (MST) as described previously for FIV CA [31]. Due to its intrinsic autofluorescence interfering with MST, the binding of compound 314 to CA was measured using isothermal microcalorimetry (ITC) with a Microcal iTC200 calorimeter (Malvern Instruments, Worcestershire, UK). The calorimeter cell contained 200 µL of recombinant HIV-1 CA (kind gifted by Drs Verrier and Coiffier) at 0.78 mg/mL in phosphate buffer (NaH2PO4/Na2HPO4) 50 mM pH 7.5, NaCl 100 mM, 1% DMSO [v/v]. Compound 314 at 200 µM was then injected sequentially into the calorimeter cell (injection #1: 1 µL, injections #2-#20: 2 µL) at 120 s intervals. Data were analyzed using the OriginLab8.5® software according to the manufacturer’s instructions.

[3] = test system: HIV-1 reverse transcription (pol viral DNA); test: qPCR quantification of reverse transcribed viral DNA in U87-CD4-CCR5 cells; format: cell-based; conditions: 10 µM, cells preincubated, DNA extracted 48 h post-infection
Procedure: U87-CD4-CCR5 cells were plated in a 24-wells plate at 1.25 × 10^5 cells per well. […] Total DNA was extracted 48 h post-infection using the AllPrep DNA/RNA Mini Kit (Qiagen, Venlo, Netherlands). […] The following program was used in the LightCycler 480 Real-Time PCR System (Roche, Basel, Switzerland): pre-incubation: 95 °C for 3 min, pre-amplification: 2 cycles of 95 °C for 15 s and 49 °C for 15 s, amplification: 40 cycles of 95 °C for 10 s, 58 °C for 20 s, 72 °C for 30 s, melting curve stage: 95 °C for 5 s, 55 °C for 1 min and then 97 °C with acquisition every 10 °C, cooling stage: 40 °C for 10 s. Serial dilution of the 8E5 cell line which contains 1 copy of HIV-1 proviral DNA per cell was used as a standard curve for viral RT products [46]. […] Results were calculated as the number of copies of Pol per copy of β-actin. Statistical analysis was performed using an unpaired, two-tailed, Mann–Whitney test with GraphPad Prism 7.0 software. Tests were performed in quadruplicate, in two independent experiments.

[4] = Cytotoxicity in U87-CD4-CCR5 cells (MTT); format: cell-based; conditions: human
Procedure: TZM-bl cells, U87-CD4-CCR5, murine macrophages (J774.1), and THP-1 monocytes (ATCC®TIB-202™) were grown following ATCC recommendations. Cells were seeded in a 96-well plate (10^4 cells in 200 µL culture medium) and incubated at 37 °C in a 5% CO2 atmosphere for 48 h, to allow cell adhesion before drug testing. For stimulation (THP-1 monocytes), cells were incubated with 100 nM of phorbol 12-myristate 13-acetate (PMA) for 48 h. PMA was then washed and cells were left for an additional 24 h, 48 h or11 days (only U87 cells) with growth media containing compound 696 at 10, 25, 50, and 100 µM. A vehicle for control (0.4% DMSO) and negative wells (cells in medium) was used in each test. Cell viability was then assessed by measuring the mitochondria-dependent reduction of MTT (3-(4,5-dimethylthiazol-2-yl)-2,5-diphenyltetrazolium bromide) to formazan. […] After removing the medium, formazan crystals were dissolved in 180 µL of DMSO and 20µL of MTT buffer (0.1 M glycine, 0.1 M NaCl, 0.5 mM EDTA, pH 10.5), and the absorbance at 560 nm was measured. […]
Compounds were first dissolved in DMSO to reach a concentration of 20 mM. […] The supernatant was collected every 3–4 days and analyzed for virus production by an in-house p24 capture ELISA. IC50 was calculated using “Quest Graph™ IC50 Calculator” (AAT Bioquest, Inc., https://www.aatbio.com/tools/ic50-calculator). […]

`Cc1ccc2c(c1)nc(-c1ccc(N(C)C)cc1)n2CCc1ccccc1` [compound 696, 2-(4-N,N-dimethylaminophenyl)-5-methyl-1-phenethyl-1H-benzimidazole] showed an EC50 at 48 h [1] greater than 50 µM, an EC50 [2] greater than 50 µM and a Kd (monomeric HIV-1 CA) of 69 ± 6 µM. The “inhibition of HIV-1 reverse transcription (pol viral DNA by qPCR)” value [3] was “did not show any significant effect” and the EC50 at 11 days [4] was greater than 50 µM.
